For this series, the system named is patients with first-line advanced pancreatic cancer. In words: randomized controlled Phase 2b clinical trial of TH-302 in combination with gemcitabine vs gemcitabine alone (NCT01144455). Here is the method: (§1) The clinical trial was conducted as a multi-center, randomized, controlled, dose-ranging, Phase 2b crossover clinical trial of TH-302 in combination with gemcitabine in patients with first line advanced pancreatic cancer. The primary endpoint of the trial was progression-free survival. The secondary endpoints were overall response rate, overall survival, change in CA 19-9 as well as various other efficacy and safety parameters. Tumor response was evaluated at baseline and every eight weeks using RECIST. Patients for whom monotherapy with gemcitabine is considered standard therapy were eligible for the trial. Patients were randomized equally into one of three cohorts: TH-302 at a dose of 240 mg/m^2 plus gemcitabine, TH-302 at a dose of 340 mg/m^2 plus gemcitabine, or gemcitabine alone. Patients who successfully completed six cycles of treatment without evidence of significant treatment-related toxicity or progressive disease could continue to receive treatment. If a patient experienced cancer progression on gemcitabine alone, the patient could cross over and be randomized into one of the TH-302 plus gemcitabine cohorts. The primary efficacy analysis was performed based upon 149 investigator-assessed PFS events and per protocol pooled the data from the two gemcitabine plus TH-302 dose groups in the comparison to gemcitabine alone.
In a separate Phase 2b trial, TH-302 was administered intravenously for 30 to 60 minutes on days 1, 8 and 15 of a 28 day cycle at either 240 mg/m^2 or 340 mg/m^2. Gemcitabine was dosed according to its package insert on days 1, 8 and 15 of a 28 day cycle. The 214 patient randomized controlled Phase 2b clinical trial compared the efficacy and safety of these two doses (240 mg/m^2 and 340 mg/m^2) of TH-302 in combination with gemcitabine to gemcitabine alone in patients with first-line advanced pancreatic cancer.
as §1, with “CA19-9” for “CA 19-9”, “over” for “over and be randomized”
This example is an update of the open-label, multicenter, randomized, Phase 2b study (NCT01144455) of two dose levels of TH-302 in combination with gemcitabine vs gemcitabine alone. The update was conducted in September 2012 and including a further follow-up of the data provided in Example 2.
Patients were stratified according to their disease stage (unresectable locally advanced vs distant metastases) and randomized as shown in FIG. 4.

With `Cn1c(COP(=O)(NCCBr)NCCBr)cnc1[N+](=O)[O-]` [TH-302, (2-bromoethyl)({[(2-bromoethyl)amino][(2-nitro-3-methylimidazol-4-yl)methoxy]phosphoryl})-amine], where the note is “TH-302 treated groups (combined) vs gemcitabine alone”, the “improvement in median PFS” value is reported as “about 2 months”. In addition, the “Skin and mucosal toxicities related to TH-302” value (in combination with gemcitabine) was “dose dependent but not dose limiting”. The “median PFS” value (two groups (combined) that received TH-302 at different doses plus gemcitabine, FIG. 2A) stood at 5.6 months.
With `Nc1ccn([C@@H]2O[C@H](CO)[C@@H](O)C2(F)F)c(=O)n1` [gemcitabine], the response rate (gemcitabine alone arm, primary analysis) was found to be 12%. The “median progression-free survival (PFS)” value (gemcitabine alone, primary analysis) is on record as 3.6 months. Also, where the note is “human, in vivo”, the “Median time to CA 19-9 response, months (range)” value is 1.8 (0.9-5.6) months; the “Patients with AEs, (%): Any rash” value came to 16%; the “Patients with AEs, (%): Pyrexia” value stood at 23%; the “Patients with AEs, (%): Stomatitis” value was determined as 7%. Further, for the setting “patients with baseline > upper limit of normal and at least one post-baseline assessment”, the “Mean CA 19-9 nadir change” value is on record as −523 U/mL. Where the note is “percent of patients”, the “CA 19-9 decrease >20%, (%)” value stood at 68%; the “CA 19-9 decrease >50%, (%)” value came to 52%; the “CA 19-9 decrease >90%, (%)” value turned out to be 16%. Where the note is “update September 2012”, the 6-month survival rate worked out at 57%; the 12-month survival rate was 26%; the “Disease control (CR, PR, plus stable disease)” value is given as 67 % of patients; the “Grade 3/4 febrile neutropenia” value is given as 0 % of patients. Besides, for the setting “update September 2012”, the “Objective best (unconfirmed) response (CR plus PR)” value is 10 % of patients, the “Treatment-emergent Grade 3/4 neutropenia” value is on record as 16 % of patients and the “Treatment-emergent Grade 3/4 thrombocytopenia” value was 10%. Further, the “median PFS” value (update September 2012, FIG. 5A) turned out to be 3.6 months. Further, for the setting “update September 2012, FIG. 5B”, the “Median OS” value was 6.9 months.

The record behind these values is patent US20170232017A1, “TREATMENT OF CANCER” (Threshold Pharmaceuticals, Inc., priority 2012, published 2017).
